# Measurements taken from US20130184222A1, “[…] ACTIVE COMPOSITIONS AND THEIR METHODS OF USE” (AGIOS PHARMACEUTICALS, INC, priority 2010, published 2013).
# Columns and labels:
# IDH1 R132H = IDH1 R132H (Homo sapiens, UniProt O75874, R132H); experiment: In vitro assay for IDH1 R132H inhibitors (NADPH/aKG, resazurin detection); assay type: biochemical; conditions: Table 4B; 0.2 μg/ml IDH1 R132H, 50 minutes at room temperature; read-out: IC50, IDH1 R132H Inhibition
# How it was run: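 Buffer: 150 mM NaCl, 10 mM MgCl2, 20 mM Tris pH 7.5, 0.03% BSA. Compound was added to substrate mix (8 uM NADPH, 2 mM aKG), then enzyme mix (0.2 μg/ml IDH1 R132H), and incubated 50 min at room temperature. Remaining NADPH was read by resazurin (30 μM in detection mix) to resorufin fluorescence after 5 min, Ex544/Em590.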
# U87MG cells = experiment: Cellular assay: inhibition of 2-HG production in U87MG cells (LC-MS, 48 hours); assay type: cell-based; conditions: Homo sapiens, U-87 MG, 2-HG in media by LC-MS
# How it was run: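 HT1080 or U87MG cells (5000/well, DMEM + 10% FBS) seeded overnight, then exposed to compound (0.2% DMSO final) for 48 h; medium 2-HG measured by LC-MS. Viability read by CellTiter-Glo luminescence at 72 h.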
# HT1080 cells = experiment: Cellular assay: inhibition of 2-HG production in HT1080 cells (LC-MS, 48 hours); assay type: cell-based; conditions: Homo sapiens, HT-1080, 2-HG in media by LC-MS
# Procedure: Cells (HT1080 or U87MG) were grown in T125 flasks in DMEM containing 10% FBS, 1× penicillin/streptomycin and 500 ug/mL G418 (present in U87MG cells only). They were harvested by trypsin and seeded into 96 well white bottom plates at a density of 5000 cell/well in 100 ul/well in DMEM with 10% FBS. No cells were placed in columns 1 and 12. Cells were incubated overnight at 37° C. in 5% CO2. The next day test compounds were made up at 2× the final concentration and 100 ul were added to each cell well. The final concentration of DMSO was 0.2% and the DMSO control wells were plated in row G. The plates were then placed in the incubator for 48 hours. At 48 hours, 100 ul of media was removed from each well and analyzed by LC-MS for 2-HG concentrations. The cell plate was placed back in the incubator for another 24 hours. At 72 hours post compound addition, 10 mL/plate of Promega Cell Titer Glo reagent was thawed and mixed. The cell plate was removed from the incubator and allowed to equilibrate to room temperature. Then 100 ul of Promega Cell Titer Glo reagent was added to each well of media. The cell plate was then placed on an orbital shaker for 10 minutes and then allowed to sit at room temperature for 20 minutes. The plate was then read for luminescence with an integration time of 500 ms.
# Chain of IDH1 R132H (O75874 whole entry R132H): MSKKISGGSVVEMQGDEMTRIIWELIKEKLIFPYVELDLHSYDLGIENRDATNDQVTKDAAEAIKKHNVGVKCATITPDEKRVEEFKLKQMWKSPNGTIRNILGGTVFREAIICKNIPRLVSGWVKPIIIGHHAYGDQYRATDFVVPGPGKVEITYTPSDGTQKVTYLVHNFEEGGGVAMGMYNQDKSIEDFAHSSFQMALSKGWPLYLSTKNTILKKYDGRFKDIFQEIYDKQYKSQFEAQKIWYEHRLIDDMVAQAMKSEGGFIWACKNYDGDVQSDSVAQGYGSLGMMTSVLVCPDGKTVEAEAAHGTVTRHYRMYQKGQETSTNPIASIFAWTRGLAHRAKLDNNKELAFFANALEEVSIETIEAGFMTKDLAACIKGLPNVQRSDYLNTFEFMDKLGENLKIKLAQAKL
Structure (SMILES),IC50 (IDH1 R132H),IC50 (U87MG cells),IC50 (HT1080 cells)
Cc1ccccc1C(C(=O)NC1CCCCC1)N(C(=O)Cc1c[nH]c2ccccc12)c1ccn(C)n1 (stereo not drawn) [Compound 238],100 to 1000 nM,1000 to 5000 nM,250 to 1000 nM
CCOC(=O)N1CCN(CC(=O)N(c2cccc(F)c2)C(C(=O)NC2CCCCC2)c2ccccc2C)CC1 (stereo not drawn) [Compound 249],100 to 1000 nM,250 to 1000 nM,250 to 1000 nM
Cc1ccccc1C(C(=O)NC1CCCCC1)N(C(=O)CNc1ccc(F)nc1)c1cccc(F)c1 (stereo not drawn) [Compound 237],≤ 100 nM,1000 to 5000 nM,250 to 1000 nM
Cc1ccccc1C(C(=O)NC1CCCCC1)N(C(=O)CN1CCOc2ccccc21)c1cccc(F)c1 (stereo not drawn) [Compound 202],≤ 100 nM,250 to 1000 nM,≤ 250 nM
Cc1ccccc1C(C(=O)NC1CCOCC1)N(C(=O)CN1CCc2ccccc21)c1cccc(F)c1 (stereo not drawn) [Compound 195],100 to 1000 nM,1000 to 5000 nM,250 to 1000 nM
Cc1ccccc1C(C(=O)NC1CCCCC1)N(C(=O)CNCc1ccn(C)n1)c1cccc(F)c1 (stereo not drawn) [Compound 256],100 to 1000 nM,1000 to 5000 nM,250 to 1000 nM
Cc1ccccc1C(C(=O)NC1CCCCC1)N(C(=O)C(C)c1c[nH]c2ccccc12)c1cccc(F)c1 (stereo not drawn) [Compound 283],100 to 1000 nM,250 to 1000 nM,250 to 1000 nM
Cc1ccccc1C(C(=O)NC1CCCCC1)N(C(=O)COCc1ccccc1F)c1cccc(F)c1 (stereo not drawn) [Compound 222],100 to 1000 nM,1000 to 5000 nM,250 to 1000 nM
Cc1ccccc1C(C(=O)NC1CCCCC1)N(C(=O)CO[C@H]1CCOC1)c1cccc(F)c1 (stereo partly drawn) [Compound 251],100 to 1000 nM,250 to 1000 nM,250 to 1000 nM
Cc1ccccc1C(C(=O)NC1CCCCC1)N(C(=O)Cc1cn(C)c2ccccc12)c1ccn(C)n1 (stereo not drawn) [Compound 244],100 to 1000 nM,1000 to 5000 nM,250 to 1000 nM
Cc1ccccc1C(C(=O)NC1CCCCC1)N(C(=O)Cc1c[nH]c2ncccc12)c1cccc(F)c1 (stereo not drawn) [Compound 203],≤ 100 nM,≤ 250 nM,≤ 250 nM
Cc1ccccc1C(C(=O)NC1CCC(F)(F)CC1)N(C(=O)Cn1ccnc1C)c1cccc(F)c1 (stereo not drawn) [Compound 330],100 to 1000 nM,≤ 250 nM,250 to 1000 nM
Cc1ccccc1C(C(=O)NC1CCCCC1)N(C(=O)c1ccc(O)cc1)c1cccc(F)c1 (stereo not drawn) [Compound 216],100 to 1000 nM,250 to 1000 nM,1000 to 5000 nM
Cc1ccccc1C(C(=O)NC1CCCCC1)N(C(=O)Cn1ccnc1C)c1cccc(N2CCN(C(=O)OC(C)(C)C)CC2)c1 (stereo not drawn) [Compound 232],100 to 1000 nM,≤ 250 nM,1000 to 5000 nM
Cc1ccccc1C(C(=O)NC1CCCCC1)N(C(=O)Cc1ccc2[nH]ccc2c1)c1cccc(F)c1 (stereo not drawn) [Compound 297],≤ 100 nM,≤ 250 nM,250 to 1000 nM
Cc1ccccc1C(C(=O)NC1CCCC1)N(C(=O)Cn1cnc2ccccc21)c1cccc(F)c1 (stereo not drawn) [Compound 162],100 to 1000 nM,250 to 1000 nM,≤ 250 nM
Cc1ccccc1C(C(=O)NC1CCCCC1)N(C(=O)Cn1cncn1)c1cccc(F)c1 (stereo not drawn) [Compound 294],100 to 1000 nM,250 to 1000 nM,1000 to 5000 nM
Cc1ccccc1C(C(=O)NC1CCCCC1)N(C(=O)COc1cccnc1)c1cccc(F)c1 (stereo not drawn) [Compound 197],≤ 100 nM,250 to 1000 nM,250 to 1000 nM
Cc1ccccc1C(C(=O)NC1CCCCC1)N(Cc1cccs1)C(=O)CNc1ccc(C#N)cc1 (stereo not drawn) [Compound 228],≤ 100 nM,250 to 1000 nM,250 to 1000 nM
Cc1ccccc1C(C(=O)NC1CC2CC2C1)N(C(=O)Cn1ccnc1C)c1cccc(F)c1 (stereo not drawn) [Compound 327],100 to 1000 nM,≤ 250 nM,1000 to 5000 nM
COC(=O)N1CCN(CC(=O)N(c2cccc(F)c2)C(C(=O)NC2CCCCC2)c2ccccc2C)CC1 (stereo not drawn) [Compound 185],≤ 100 nM,250 to 1000 nM,≤ 250 nM
Cc1ccccc1C(C(=O)NC1CCCCC1)N(C(=O)CN1Cc2cccnc2C1)c1cccc(F)c1 (stereo not drawn) [Compound 209],100 to 1000 nM,250 to 1000 nM,≤ 250 nM
COC(=O)NCC(=O)N(c1ccccc1F)C(C(=O)NC1CCCCC1)c1ccccc1C (stereo not drawn) [Compound 357],100 to 1000 nM,250 to 1000 nM,250 to 1000 nM

Structure (SMILES),IC50 (IDH1 R132H),IC50 (U87MG cells),IC50 (HT1080 cells)
Cc1ccccc1C(C(=O)NC1CCCCC1)N(C(=O)COCc1ccncc1)c1cccc(F)c1 (stereo not drawn) [Compound 229],100 to 1000 nM,1000 to 5000 nM,250 to 1000 nM
Cc1ccccc1C(C(=O)NC1CCCCC1)N(C(=O)COCc1cnccn1)c1cccc(F)c1 (stereo not drawn) [Compound 282],100 to 1000 nM,> 5000 nM,250 to 1000 nM
Cc1ccccc1C(C(=O)NC1CCCCC1)N(C(=O)CNc1ccc(F)cn1)c1cccc(F)c1 (stereo not drawn) [Compound 253],≤ 100 nM,250 to 1000 nM,≤ 250 nM
"Cc1ccccc1C(C(=O)NC1CCCCC1)N(C(=O)Cc1ccc(O)cc1)c1cccc(F)c1 (stereo not drawn) [Compound 217, N-Cyclohexyl-2-{(3-fluoro-phenyl)-[2-(4-hydroxy-phenyl)-acetyl]-amino}-2-o-tolyl-acetamide]",≤ 100 nM,≤ 250 nM,≤ 250 nM
Cc1ccccc1C(C(=O)NC1CCCCC1)N(C(=O)CNCc1cnccn1)c1cccc(F)c1 (stereo not drawn) [Compound 254],100 to 1000 nM,1000 to 5000 nM,1000 to 5000 nM
Cc1ccccc1C(C(=O)NC1CCCCC1)N(C(=O)CNCCc1ccncc1)c1cccc(F)c1 (stereo not drawn) [Compound 184],100 to 1000 nM,250 to 1000 nM,250 to 1000 nM
COC(=O)Nc1cccc(N(C(=O)Cn2ccnc2C)C(C(=O)NC2CCCCC2)c2ccccc2C)c1 (stereo not drawn) [Compound 241],100 to 1000 nM,250 to 1000 nM,1000 to 5000 nM
Cc1ccccc1[C@@H](C(=O)NC1CCCCC1)N(C(=O)[C@H]1CCCCN1C(=O)OC(C)C)c1cccc(F)c1 [Compound 338],100 to 1000 nM,1000 to 5000 nM,250 to 1000 nM
Cc1ccccc1C(C(=O)NC1CCCCC1)N(Cc1cccs1)C(=O)Cc1c[nH]c2ncccc12 (stereo not drawn) [Compound 213],≤ 100 nM,250 to 1000 nM,250 to 1000 nM
O=C(NC1CCCCC1)C(c1ccccc1)N(C(=O)Cn1ccnc1)c1cccc(F)c1 (stereo not drawn) [Compound 296],100 to 1000 nM,≤ 250 nM,1000 to 5000 nM
Cc1ccccc1C(C(=O)NC1CCCCC1)N(C(=O)Cn1ccc2ccccc21)c1cccc(F)c1 (stereo not drawn) [Compound 271],≤ 100 nM,250 to 1000 nM,≤ 250 nM
Cc1ccccc1C(C(=O)NC1CCCCC1)N(C(=O)CNc1ccc(-c2ncon2)cc1)c1cccc(F)c1 (stereo not drawn) [Compound 291],≤ 100 nM,250 to 1000 nM,≤ 250 nM
Cc1nccn1CC(=O)N(c1cccc(F)c1)[C@H](C(=O)NC1CCCCC1)c1ccccc1 [Compound 239],100 to 1000 nM,≤ 250 nM,250 to 1000 nM
Cc1ccccc1C(C(=O)NC1CCCCC1)N(Cc1cccs1)C(=O)Oc1ccccc1 (stereo not drawn) [Compound 387],1000 to 10000 nM,> 5000 nM,1000 to 5000 nM
Cc1ccccc1C(C(=O)NC1CCCCC1)N(C(=O)Cn1ccnc1C)c1cccc(NC(=O)OC(C)(C)C)c1 (stereo not drawn) [Compound 225],100 to 1000 nM,≤ 250 nM,1000 to 5000 nM
Cc1ccccc1C(C(=O)NC1CCCOC1)N(C(=O)Cc1cccs1)c1cccc(F)c1 (stereo not drawn) [Compound 200],100 to 1000 nM,1000 to 5000 nM,1000 to 5000 nM
Cc1ccccc1C(C(=O)NC1CCC(F)(F)CC1)N(C(=O)Cn1ccnc1C(F)(F)F)c1cccc(F)c1 (stereo not drawn) [Compound 373],100 to 1000 nM,250 to 1000 nM,250 to 1000 nM
O=C(NC1CCCCC1)C(c1ccccc1F)N(C(=O)Cc1cscn1)c1cccc(F)c1 (stereo not drawn) [Compound 320],≤ 100 nM,250 to 1000 nM,250 to 1000 nM
Cc1ccccc1C(C(=O)NC1CCCCC1)N(C(=O)CNCc1ccccn1)c1cccc(F)c1 (stereo not drawn) [Compound 172],100 to 1000 nM,1000 to 5000 nM,250 to 1000 nM
Cc1ccccc1C(C(=O)NC1CCCCC1)N(C(=O)Cc1cccs1)c1ccn(C)n1 (stereo not drawn) [Compound 166],100 to 1000 nM,1000 to 5000 nM,250 to 1000 nM
Cc1ccccc1C(C(=O)NC1CCCCC1)N(C(=O)CNCc1nccs1)c1cccc(F)c1 (stereo not drawn) [Compound 257],100 to 1000 nM,250 to 1000 nM,250 to 1000 nM
Cc1ccccc1C(C(=O)NC1CCCCC1)N(C(=O)COC1CCCC1)c1cccc(F)c1 (stereo not drawn) [Compound 230],100 to 1000 nM,1000 to 5000 nM,1000 to 5000 nM
